Measured values reported in US20150196490A1 (priority 2011, published 2015).

Tested on: sweat production
Conditions: human, in vivo

Polysorbate 80
greater effectiveness in reducing sweat production than placebo: 280%
greater reduction in sweat production than the control group: 300%
reduction in sweat production: 159 mg
subjects with at least a 30% reduction in sweat production compared to Baseline: 80%

CCCOC(=O)c1ccc(O)cc1 [Propylparaben]
greater effectiveness in reducing sweat production than placebo: 245%
greater reduction in sweat production than the control group: 337%
reduction in sweat production: 177 mg
subjects with at least a 30% reduction in sweat production compared to Baseline: 70%

CCCCCCCCCCCCCC(=O)OC(C)C [Isopropyl Myristate]
greater effectiveness in reducing sweat production than placebo: 191%
greater reduction in sweat production than the control group: 195%
reduction in sweat production: 103 mg
subjects with at least a 30% reduction in sweat production compared to Baseline: 55%
